ChEMBL document CHEMBL1201862, “PubChem BioAssay data set” (2004)
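Cultured in 96-well plates, cells were exposed to test compound for 48 hours across five concentrations. GI50 = concentration required for 50% inhibition of growth.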 Activity calls are given as the source filed them. Rule as the data show it: active = GI50 up to about 1.1 µM and inactive = higher.

Tests used:
Experiment in all cases: growth of human tumour cells (NCI), 48 h
SK-MEL-28 = system: SK-MEL-28
T47D = system: T47D
EKVX = system: EKVX
NCI-H460 = system: NCI-H460
UACC-257 = system: UACC-257
Malme-3M = system: Malme-3M
DU-145 = system: DU-145
OVCAR-3 = system: OVCAR-3
IGROV-1 = system: IGROV-1
PC-3 = system: PC-3
HCC 2998 = system: HCC 2998
HL-60 = system: HL-60
A549 = system: A549
SF-295 = system: SF-295
K562 = system: K562
SK-MEL-5 = system: SK-MEL-5
SK-MEL-2 = system: SK-MEL-2
BT-549 = system: BT-549

Measured: GI50

Nc1nc(Cl)nc2c1ncn2C1CCC(COP(=O)(O)OP(=O)(O)OP(=O)(O)O)O1 (stereo unspecified)
inactive: SK-MEL-28 20.4 µM | T47D 23.8 µM | EKVX 40.1 µM | NCI-H460 41.6 µM | UACC-257 41.6 µM | Malme-3M > 100 µM | DU-145 23.3 µM | OVCAR-3 50.2 µM | IGROV-1 30.5 µM | PC-3 23.1 µM | HCC 2998 28.1 µM | HL-60 28.5 µM | A549 32.7 µM | SF-295 17.9 µM

O=c1[nH]c(=O)n(CCOc2ccccc2)cc1Nc1ccccc1
inactive: SK-MEL-28 > 100 µM | K562 > 100 µM | EKVX > 100 µM | NCI-H460 > 100 µM | UACC-257 > 100 µM | Malme-3M > 100 µM | SK-MEL-5 > 100 µM | DU-145 > 100 µM | OVCAR-3 > 100 µM | IGROV-1 > 100 µM | PC-3 > 100 µM | HCC 2998 > 100 µM | A549 > 100 µM | SF-295 41.8 µM

C#CC(O)/C=C/C(O)CCCC(O)CC#CC(O)C#CCCCCC(O)/C=C/CCCC(O)/C=C/CCCCCCCCCCCCCC(O)C(O)C#CC(=O)O (stereo unspecified)
inactive: SK-MEL-28 > 25 µM | T47D > 25 µM | K562 > 25 µM | EKVX > 25 µM | NCI-H460 > 25 µM | UACC-257 > 25 µM | Malme-3M 23.2 µM | SK-MEL-5 > 25 µM | DU-145 > 25 µM | IGROV-1 > 25 µM | PC-3 > 25 µM | HCC 2998 > 25 µM | HL-60 > 25 µM | SK-MEL-2 > 25 µM | A549 > 25 µM | SF-295 > 25 µM

COc1ccc(Nc2nnc(CCCCCCCCc3nnc(Nc4ccc(OC)cc4)o3)o2)cc1
inactive: BT-549 80.9 µM | SK-MEL-28 > 100 µM | K562 > 100 µM | EKVX > 100 µM | NCI-H460 > 100 µM | UACC-257 > 100 µM | Malme-3M > 100 µM | SK-MEL-5 > 100 µM | DU-145 > 100 µM | OVCAR-3 > 100 µM | IGROV-1 > 100 µM | PC-3 > 100 µM | HCC 2998 > 100 µM | HL-60 > 100 µM | SK-MEL-2 > 100 µM | A549 > 100 µM | SF-295 > 100 µM

O=[N+]([O-])C(=C1NCCN1)C(Cl)=C(Cl)Cl
inactive: SK-MEL-28 > 100 µM | T47D > 100 µM | K562 > 100 µM | EKVX > 100 µM | NCI-H460 > 100 µM | UACC-257 > 100 µM | Malme-3M > 100 µM | SK-MEL-5 > 100 µM | DU-145 > 100 µM | OVCAR-3 > 100 µM | IGROV-1 > 100 µM | PC-3 > 100 µM | HCC 2998 > 100 µM | HL-60 62.2 µM | SK-MEL-2 > 100 µM | A549 > 100 µM | SF-295 > 100 µM

COC(=O)[C@@H]1[C@H](O)[C@H](C)[C@H](O)[C@H](C)/C=C\C=C(\C)C(=O)Nc2c(C)c(OC(C)=O)c3c(c2O)C(=O)C(C)=C2OCOC(=C23)/C(C)=C/[C@@H](O)[C@H](O)[C@@H](C)[C@H]1OC(C)=O
inactive: BT-549 > 100 µM | SK-MEL-28 55.6 µM | K562 52.7 µM | EKVX > 100 µM | UACC-257 28.3 µM | Malme-3M 34.6 µM | SK-MEL-5 57.4 µM | DU-145 > 100 µM | IGROV-1 67.9 µM | PC-3 31.8 µM | HL-60 5.36 µM | SF-295 > 100 µM

CC1=NNC(=O)C1C1CC(c2c[nH]c3ccccc23)=NN(c2ccccc2)C1=O (stereo unspecified)
inactive: BT-549 86.1 µM | SK-MEL-28 > 100 µM | T47D > 100 µM | K562 35 µM | EKVX > 100 µM | NCI-H460 > 100 µM | UACC-257 > 100 µM | Malme-3M > 100 µM | SK-MEL-5 > 100 µM | DU-145 > 100 µM | OVCAR-3 > 100 µM | IGROV-1 1.62 µM | PC-3 > 100 µM | HL-60 34.7 µM | SK-MEL-2 > 100 µM | A549 > 100 µM | SF-295 > 100 µM

O=C1N/C(=N/N=C/C(O)C(O)C(O)C(O)CO)N/C1=C\c1ccco1 (stereo unspecified)
inactive: BT-549 > 100 µM | SK-MEL-28 > 100 µM | T47D > 100 µM | K562 > 100 µM | EKVX > 100 µM | NCI-H460 > 100 µM | UACC-257 > 100 µM | Malme-3M > 100 µM | SK-MEL-5 > 100 µM | DU-145 > 100 µM | OVCAR-3 > 100 µM | IGROV-1 > 100 µM | PC-3 32.3 µM | HL-60 > 100 µM | SK-MEL-2 93.8 µM | A549 > 100 µM | SF-295 > 100 µM

C/C=C(\C)CC/C=C/CO[Si](C)(C)C(C)(C)C
inactive: SK-MEL-28 > 100 µM | T47D > 100 µM | K562 > 100 µM | EKVX > 100 µM | NCI-H460 > 100 µM | UACC-257 69 µM | Malme-3M 51.1 µM | SK-MEL-5 > 100 µM | DU-145 > 100 µM | OVCAR-3 54.7 µM | IGROV-1 > 100 µM | PC-3 > 100 µM | HCC 2998 > 100 µM | HL-60 32.6 µM | SK-MEL-2 35.4 µM | A549 39.4 µM | SF-295 79.1 µM

CC(C)CCC[C@@H](C)[C@H]1CCC2C3CC=C4C[C@@H](Oc5c6ccccc6nc6ccccc56)CCC4C3CCC21 (stereo partly specified)
inactive: BT-549 > 50 µM | SK-MEL-28 > 50 µM | T47D > 50 µM | K562 > 50 µM | EKVX > 50 µM | NCI-H460 > 50 µM | UACC-257 > 50 µM | Malme-3M > 50 µM | SK-MEL-5 > 50 µM | DU-145 > 50 µM | OVCAR-3 > 50 µM | IGROV-1 > 50 µM | PC-3 > 50 µM | HL-60 > 50 µM | SK-MEL-2 > 50 µM | A549 > 50 µM | SF-295 > 50 µM

C=CCOC(=O)N1[C@H]2C#C/C=C\C#C[C@]3(O)C(=O)C[C@H](C)[C@]24O[C@]43C2=CC(=O)C=CC21OC (stereo partly specified)
inactive: SK-MEL-28 95.9 µM | T47D 64.9 µM | K562 42.2 µM | EKVX 44 µM | NCI-H460 13.9 µM | UACC-257 19.4 µM | Malme-3M 43.7 µM | DU-145 38.7 µM | IGROV-1 16.7 µM | PC-3 30.6 µM | HCC 2998 26.5 µM | HL-60 30.8 µM | SK-MEL-2 18 µM | A549 23.2 µM | SF-295 44 µM

CC1(C)OC(=O)C(C)(C)OC1=O
inactive: SK-MEL-28 > 100 µM | T47D > 100 µM | K562 > 100 µM | EKVX > 100 µM | NCI-H460 > 100 µM | UACC-257 > 100 µM | Malme-3M > 100 µM | SK-MEL-5 > 100 µM | DU-145 > 100 µM | OVCAR-3 > 100 µM | IGROV-1 > 100 µM | PC-3 > 100 µM | HL-60 > 100 µM | SK-MEL-2 > 100 µM | A549 > 100 µM | SF-295 > 100 µM

COC[C@@H](/N=C/c1ccc(OC)cc1)C(C)C
inactive: BT-549 > 100 µM | SK-MEL-28 > 100 µM | T47D > 100 µM | K562 > 100 µM | EKVX > 100 µM | NCI-H460 > 100 µM | UACC-257 > 100 µM | Malme-3M > 100 µM | SK-MEL-5 > 100 µM | DU-145 > 100 µM | IGROV-1 > 100 µM | PC-3 > 100 µM | SK-MEL-2 > 100 µM | A549 > 100 µM | SF-295 > 100 µM

Cc1c(C)c(C)n(C2OC(CO)C(O)C(O)C2O)c(=S)c1C#N (stereo unspecified)
inactive: SK-MEL-28 > 100 µM | T47D > 100 µM | K562 > 100 µM | EKVX > 100 µM | NCI-H460 > 100 µM | UACC-257 > 100 µM | Malme-3M > 100 µM | SK-MEL-5 > 100 µM | DU-145 > 100 µM | OVCAR-3 > 100 µM | IGROV-1 > 100 µM | PC-3 > 100 µM | HCC 2998 > 100 µM | HL-60 > 100 µM | SK-MEL-2 > 100 µM | A549 > 100 µM | SF-295 > 100 µM

[O-][n+]1c2ccccc2[n+]([O-])c2cc(Br)ccc21
inactive: SK-MEL-28 54.1 µM | T47D 10.2 µM | K562 4.63 µM | EKVX 16.7 µM | NCI-H460 10.4 µM | UACC-257 17.9 µM | Malme-3M 23.2 µM | SK-MEL-5 13.3 µM | DU-145 24.7 µM | OVCAR-3 2.21 µM | IGROV-1 5.81 µM | HCC 2998 16.5 µM | HL-60 1.31 µM | SK-MEL-2 29 µM | A549 10.8 µM | SF-295 20.6 µM

COc1cc(S(=O)(=O)N/N=C/c2cc(Br)c(O)c(OC)c2)c(OC)cc1NC(C)=O
inactive: BT-549 > 100 µM | SK-MEL-28 > 100 µM | T47D 41.3 µM | K562 41.5 µM | EKVX 55.5 µM | UACC-257 > 100 µM | SK-MEL-5 87.7 µM | DU-145 85.9 µM | OVCAR-3 92 µM | IGROV-1 50.8 µM | PC-3 62.2 µM | HL-60 25 µM | SK-MEL-2 > 100 µM | A549 > 100 µM | SF-295 > 100 µM

CC1CC2OC(=N)C1(C#N)C2(C#N)C#N (stereo unspecified)
inactive: SK-MEL-28 35.3 µM | T47D 25.9 µM | K562 17.9 µM | EKVX 16.6 µM | UACC-257 18.8 µM | Malme-3M 15.8 µM | SK-MEL-5 10.4 µM | DU-145 56.6 µM | IGROV-1 20.3 µM | PC-3 25.7 µM | HCC 2998 19.5 µM | SK-MEL-2 20.3 µM | A549 > 100 µM | SF-295 79.1 µM
